# Patent US9040261B2, “Compounds as L-cystine crystallization inhibitors and uses thereof” (NEW YORK UNIVERSITY, priority 2009, dated 2015)
# Where a name gives a salt, the structure may show the parent alone. Marks after values point to notes of the source that are not given here.
# Legend:
# [1] = Bulk crystallization of L-cystine in the presence of additives (mass yield); settings: for influence on L-cystine growth: polymers and proteins with proximal carboxylate and amine groups
# Experimental: Alternately, the hexagonal crystals can be obtained by crystallization performed near neutral pH (Sa) The hexagonal form was crystallized from a supersaturated L-cystine solution prepared by adding 70 mg of L-cystine to 100 mL of deionized water (3 mM), and heating under reflux at 100° C. for 20 min with stirring to completely dissolve L-cystine. […] This concentration was used for bulk crystallization studies in the presence of additives so that a measurable amount of bulk crystals could be obtained in a reasonable time. The solution was then allowed to cool slowly with stirring for 75 min. 30 mL aliquots were transferred to separate glass containers, which were then sealed to prevent evaporation and exposure to airborne particulates and stored for 72 hours at room temperature without stirring. […] The crystals retrieved in this manner were used for AFM studies by mounting individual crystals according to the procedure described below.
# Various proteins, poly-amino acids, and molecular mimics of L-cystine were examined as additives. The aforementioned procedure for hexagonal platelet crystallization was repeated. Following the 75 min cooling period, prior to any observable crystallization, the additive was added to the supersaturated L-cystine solution to the desired concentration. […] Crystallization without additive was performed in an identical manner for comparison using a control solution from the same batch. The mass yields of L-cystine crystals were obtained by dividing the mass of L-cystine crystals (collected from growth solution by filtration) by the mass of L-cystine added in the growth solution.
# Additives chosen for these studies were various proteins, poly-amino acids, and molecular mimics of L-cystine (see Table 1). The above procedure for hexagonal platelet crystallization was repeated until completion of the 75 min cooling period, at which point 29.5 g of solution was transferred to a 100 mL beaker containing 0.5 g of separately prepared additive solution to yield net concentrations of 2 mg/L additive and 0.7 g/L L-cystine. Additive solutions were replaced with deionized water of equivalent volume for control measurements. […]
# L-cystine bulk crystallization was investigated in the presence of various polymers, urinary constituents, fish antifreeze proteins (AFPs), and L-cystine derivatives (i.e. structural mimics of L-cystine), which were analyzed as possible growth inhibitors of hexagonal L-cystine. The potency of each additive was assessed by comparing the difference in crystal yield (Table 1), which is equal to the mass of crystals formed in the presence of 2 mg/L additive (isolated with […]) divided by the total mass of L-cystine (700 mg/L).
# [2] = Crystal size and habit by optical microscopy and SEM after bulk crystallization with additive; settings: for L-cystine crystal habit in the presence of additive: hexagonal platelets without additive
# Experimental: Various proteins, poly-amino acids, and molecular mimics of L-cystine were examined as additives. The aforementioned procedure for hexagonal platelet crystallization was repeated. Following the 75 min cooling period, prior to any observable crystallization, the additive was added to the supersaturated L-cystine solution to the desired concentration. The container was sealed and stored for 72 hours at room temperature without stirring, after which the precipitate was collected by vacuum filtration (Whatman Grade 1 filters, >11 μm pores) and were air dried prior to analysis. Crystallization without additive was performed in an identical manner for comparison using a control solution from the same batch. The mass yields of L-cystine crystals were obtained by dividing the mass of L-cystine crystals (collected from growth solution by filtration) by the mass of L-cystine added in the growth solution. The crystals were isolated with 11 μm-pore filters, which were regarded as sufficiently small for reliable capture of the crystals (optical micrographs reveal that the size of crystals was always greater than 50 μm
# An Orion 3 Star pH meter (Thermo Electron Corp.) with Orion 9157BNMD probe was used to measure the pH of L-cystine solutions. Crystal morphology was measured with a Leitz ERGOLUZ optical microscope and a Hitachi 3500 scanning electron microscopy. A thin coating of gold (2 nm) was sputtered on SEM samples and images were acquired at low voltage (2-5 kV) to minimize sample melting. ^1H NMR spectra were recorded using a Bruker AVANCE 400 spectrometer and were routinely run using broadband decoupling. Chemical shifts (δ), expressed in ppm, are referenced to the corresponding residual nuclei in deuterated solvent (D2O). Powder X-ray diffraction (XRD) patterns of isolated crystals were acquired with a Panalytical XPert PRO MPD using a Bragg-Brentano geometry with fixed slits at power settings of 45 kV and 40 mA. A CuKa radiation (0.154 nm) source was used with a 1 degree fixed divergence slit (10 mm beam mask) for incident X-rays and a 1 degree anti-scatter slit Ni filter ( 1/16 degree receiving slit) for diffracted X-rays.
# [3] = AFM step velocity and hillock imaging with L-cystine diesters under continuous flow; settings: 0.015 mM inhibitor, 2 mM L-cystine
# Experimental: Atomic force microscopy was performed with a Digital Instruments (Santa Barbara, Calif.) Nanoscope Ma Multimode system. All measurements were performed in a cell designed to contain liquids for in situ imaging, including step velocity measurements. All measurements were performed in contact mode using Veeco NP_B Si3N4 tips on silicon nitride cantilevers with a spring constant of 0.12N/m (triangular, 196 μm length, 41 μm width). L-cystine crystals (hexagonal form) were transferred onto an AFM specimen disk coated with partially cured (1 hr) UV-curable optical cement (Type SK-9, EMS Acquisition Corp.) by gently pressing the disk against hexagonal platelets collected by filtration (Whatman Nuclepore membrane, 8 μm). The (001) faces of the hexagonal plates naturally aligned parallel with the specimen disk such that the velocity of the equivalent {100} steps could be measured readily by AFM. The partially cured polymer with the adhered crystals was cured completely by additional UV radiation (2 hrs) prior to analysis. The mounted L-cystine crystals were etched slightly by immersion in deionized water for 30 sec at 60° C. to remove amorphous deposits or impurities that may be present on the surface. Step velocities on the hexagonal L-cystine crystals were measured by AFM using a fluid cell containing an aqueous solution, supersaturated with L-cystine (2 mM), introduced to the cell via a syringe. Step velocities were determined by measuring the distance of the steps from a reference point, usually the dislocation core, in consecutive deflection images acquired at periodic intervals, ranging from 9-14 sec. Measurements were acquired under continuous flow of fresh solution in order to maintain constant supersaturation and additive concentration. […] The step velocities, which correspond to the crystal growth rates, were measured with and without inhibitor for each pair.
# [4] = 2 mg/L additive, 0.7 g/L L-cystine (pH 6.8), no additive 80, approximate error ±8%
# [5] = 10 mg/L L-cysteine methylester, 700 mg/L L-cystine
compound,measurement,setting,value
Tamm-Horsfall protein: Tamm-Horsfall protein obtained from a human sample with no history of kidney stone disease,"Yield (%) = (collected mass by filtration, >11 μm)/(total mass added) × 100%",[1]; [4],69%
same,influence on L-cystine growth,[1]; Table 1,negligible influence
"O=C(O)CCSSCCC(=O)O [3,3′-Dithiodiproprionic acid, 3,3′-dithiodipropionic acid, reference compound]","Yield (%) = (collected mass by filtration, >11 μm)/(total mass added) × 100%",[1]; [4],72%
Chondroitin sulfate,"Yield (%) = (collected mass by filtration, >11 μm)/(total mass added) × 100%",[1]; [4],64%
"COC(=O)[C@@H](N)CS.Cl [L-cysteine methyl ester, L-cysteine methyl ester hydrochloride, reference compound]","Yield (%) = (collected mass by filtration, >11 μm)/(total mass added) × 100%","[1]; 10 mg/L additive, 0.7 g/L L-cystine, no additive 80±8%, hydrochloride",32%
same,needle length,[2]; [5],< 50 μm
same,needle width,[2]; [5],< 5 μm
same,L-cystine crystal habit in the presence of additive,[2],needles
"CC(C)(SSC(C)(C)[C@@H](N)C(=O)O)[C@H](N)C(=O)O [D-penicillamine disulfide, reference compound]","Yield (%) = (collected mass by filtration, >11 μm)/(total mass added) × 100%",[1]; [4],65%
Poly-L-aspartate [reference compound],"Yield (%) = (collected mass by filtration, >11 μm)/(total mass added) × 100%",[1]; [4],44%
Poly-L-arginine [reference compound],"Yield (%) = (collected mass by filtration, >11 μm)/(total mass added) × 100%",[1]; [4],34%
"COC(=O)[C@@H](N)CSSC[C@H](N)C(=O)O [CME, L-Cystine Methyl Ester]","Yield (%) = (collected mass by filtration, >11 μm)/(total mass added) × 100%",[1]; [4],92* %
same,CME concentration needed for crystal growth inhibition similar to CDME,[1]; bulk crystallization,more than twice that of CDME
same,needle volume less than hexagonal platelets,[2],~100 times
same,L-cystine crystal habit in the presence of additive,[2],tapered hexagonal crystals
"CC(C)OC(=O)[C@@H](N)CSSC[C@H](N)C(=O)OC(C)C [L-CDIE, L-Cystine Di-Isopropyl Ester]","order of step roughening, corresponding to the trend in inhibition",[3],L-CDME>L-CDEE>L-CDIE>L-CDTE
"CC(C)(C)OC(=O)[C@@H](N)CSSC[C@H](N)C(=O)OC(C)(C)C [L-CDTE, Cystine Di-t-Butyl Ester]","order of step roughening, corresponding to the trend in inhibition",[3],L-CDME>L-CDEE>L-CDIE>L-CDTE
Poly-L-glutamate [reference compound],"Yield (%) = (collected mass by filtration, >11 μm)/(total mass added) × 100%",[1]; [4],56%
same,influence on L-cystine growth,[1]; Table 1,negligible influence
"O=C(O)CC(O)(CC(=O)O)C(=O)O [Citrate, sodium citrate (dihydrate), reference compound]","Yield (%) = (collected mass by filtration, >11 μm)/(total mass added) × 100%",[1]; pH 6.8,74%
"Transferrin: apo-transferrin (human, >98%)","Yield (%) = (collected mass by filtration, >11 μm)/(total mass added) × 100%",[1]; [4],56%
Desialylated Tamm-Horsfall protein: native THP desialylated by treatment with neuraminidase (50% reduction of carbohydrate content),"Yield (%) = (collected mass by filtration, >11 μm)/(total mass added) × 100%",[1]; [4],41%
"Osteopontin (bovine): Osteopontin, extracted and purified from bovine milk, contains 7 wt % Ca2+ ions","Yield (%) = (collected mass by filtration, >11 μm)/(total mass added) × 100%",[1]; [4],52%
same,influence on L-cystine growth,[1]; Table 1,negligible influence
"N[C@@H](CS)C(=O)O [L-cysteine, reference compound]","Yield (%) = (collected mass by filtration, >11 μm)/(total mass added) × 100%","[1]; 10 mg/L additive, 0.7 g/L L-cystine, no additive 80±8%",91%
same,influence on mass yield,"[1]; bulk crystallization, Table 1",did not influence the yield
same,L-cystine crystal habit in the presence of additive,[2],Hexagonal L-cystine platelets
Poly-L-lysine [reference compound],"Yield (%) = (collected mass by filtration, >11 μm)/(total mass added) × 100%",[1]; [4],64%
same,influence on L-cystine growth,[1]; Table 1,negligible influence
"CCOC(=O)[C@@H](N)CSSC[C@H](N)C(=O)OCC [L-CDEE, Cystine Diethyl Ester]","order of step roughening, corresponding to the trend in inhibition",[3],L-CDME>L-CDEE>L-CDIE>L-CDTE
"CC(C)(C)SSC[C@H](N)C(=O)O [S-tert-butylmercapto-L-cystine, 5-tert-butylmercapto-L-cysteine, reference compound]","Yield (%) = (collected mass by filtration, >11 μm)/(total mass added) × 100%",[1]; [4],45%
